{"source": "patent US20100152434A1", "about": "“Protein Kinase-binding Nucleosides and Associated Methods” (priority 2007, published 2010)", "key": {"SR [1]": {"test_system": "SR"}, "K-562 [2]": {"test_system": "K-562"}, "PC-3": {"test_system": "PC-3", "experiment": "cells", "settings": "Homo sapiens, PC-3, 48 h"}, "SW-620 [3]": {"test_system": "SW-620"}, "SW-620 [4]": {"test_system": "SW-620", "experiment": "cells", "settings": "Homo sapiens, SW-620, 48 h"}, "SK-MEL-28 [5]": {"test_system": "SK-MEL-28"}, "HS 578T [6]": {"test_system": "HS 578T"}, "HL-60(TB) [7]": {"test_system": "HL-60(TB)"}, "cells": {"experiment": "cells", "settings": "Homo sapiens, 48 h, read-out: LC50"}, "MOLT-4 [8]": {"test_system": "MOLT-4", "experiment": "cells", "settings": "Homo sapiens, MOLT-4, 48 h"}, "HL-60(TB) [9]": {"test_system": "HL-60(TB)", "experiment": "cells", "settings": "Homo sapiens, HL-60, 48 h"}, "AURKB": {"target": "AURKB (Homo sapiens, UniProt Q96GD4)", "sequence (Q96GD4 whole entry)": "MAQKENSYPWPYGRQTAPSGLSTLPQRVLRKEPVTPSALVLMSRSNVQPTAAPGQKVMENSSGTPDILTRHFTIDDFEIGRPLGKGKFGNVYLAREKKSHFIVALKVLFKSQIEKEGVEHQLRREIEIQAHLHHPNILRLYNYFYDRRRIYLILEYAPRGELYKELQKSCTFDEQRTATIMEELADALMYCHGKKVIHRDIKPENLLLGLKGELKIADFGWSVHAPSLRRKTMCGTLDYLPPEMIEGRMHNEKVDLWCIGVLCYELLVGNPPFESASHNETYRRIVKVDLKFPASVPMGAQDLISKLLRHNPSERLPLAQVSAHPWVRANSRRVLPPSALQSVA", "experiment": "Ambit kinase phage display ATP-binding-site ligand binding assay", "settings": "read-out: percent inhibition of binding", "source_text": "(§1) In this assay, protein kinases are cloned into T7 bacteriophage which express the kinase fusion proteins on the phage capsid. T7 kinase-tagged phage are then screened for binding to ATP-binding-site ligands that have been immobilized on a solid support. Phage are screened for binding to the anchored ligands both in the presence of test compound and in its absence (control). Elution of the bound phage by free ligand (ATP-binding site ligand that is not immobilized on a solid support) followed by determination of the phage titre provides a reliable measure of the ability of test compounds to block binding of target kinases to resin-bound ATP-binding-site ligands.\n(§2) T7 kinase-tagged phage strains were grown in parallel in microtiter plates in a proprietary bacterial host derived from E. Coli strain BL21. E. Coli were grown to a log phase, infected with T7 kinase-tagged phage, and incubated while shaking at 32° C. until bacterial lysis (approx. 90 min). Lysates were centrifuged (6,000 g) and filtered (0.2 μm). Small molecule ATP-binding-site-specific ligands were anchored to solid supports via a two step process beginning with biotin conjugation followed by treatment of the biotin/small molecule conjugate with streptavidin-coated magnetic beads. […] The phage titre of the eluates was measured by quantitative PCR or by plaque assays. […]"}, "SR [10]": {"test_system": "SR", "experiment": "cells", "settings": "Homo sapiens, 48 h"}, "[11]": {"test_system": "60 different human tumor cell lines (the NCI 60)", "settings": "CCRF-CEM; HL-60(TB); K-562; MOLT-4; RPMI-8226; SR; A549/ATCC; HOP-62; NCI-H460; NCI-H522; COLO 205; HCT-116; HCT-15; HT29; KM12; SW-620; SF-268; SF-295; SF-539; SNB-75; U251; LOX IMVI; M14; SK-MEL-2; SK-MEL-28; SK-MEL-5; UACC-257; IGROV1; OVCAR-3; OVCAR-8; 786-0; A498; ACHN; RXF393; SN12C; PC-3; DU-145; MCF7; MDA-MB-231/ATCC; HS578T; MDA-MB-435; T-47D"}, "MOLT-4 [12]": {"test_system": "MOLT-4"}, "CLK3": {"target": "CLK3 (Homo sapiens, UniProt P49761)", "sequence (P49761 whole entry)": "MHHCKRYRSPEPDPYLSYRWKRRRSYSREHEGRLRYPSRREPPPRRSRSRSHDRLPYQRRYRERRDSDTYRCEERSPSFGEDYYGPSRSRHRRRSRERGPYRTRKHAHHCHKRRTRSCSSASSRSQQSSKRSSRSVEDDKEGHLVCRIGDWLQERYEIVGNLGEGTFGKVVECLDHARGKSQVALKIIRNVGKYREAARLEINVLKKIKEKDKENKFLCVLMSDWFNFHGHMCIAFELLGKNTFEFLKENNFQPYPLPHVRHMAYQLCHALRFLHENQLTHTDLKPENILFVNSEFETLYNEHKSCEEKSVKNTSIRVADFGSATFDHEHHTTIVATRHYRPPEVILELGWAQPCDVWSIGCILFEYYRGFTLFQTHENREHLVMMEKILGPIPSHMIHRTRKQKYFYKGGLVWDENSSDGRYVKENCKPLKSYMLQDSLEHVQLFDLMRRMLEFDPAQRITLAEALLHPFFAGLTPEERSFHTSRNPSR", "experiment": "Ambit kinase phage display ATP-binding-site ligand binding assay", "settings": "read-out: percent inhibition of binding", "source_text": "as §1, §2"}, "SK-MEL-28 [13]": {"test_system": "SK-MEL-28", "experiment": "cells", "settings": "Homo sapiens, SK-MEL-28, 48 h"}, "K-562 [14]": {"test_system": "K-562", "experiment": "cells", "settings": "Homo sapiens, K562, 48 h"}, "CIT": {"target": "CIT (Homo sapiens, UniProt O14578)", "sequence (O14578 whole entry)": "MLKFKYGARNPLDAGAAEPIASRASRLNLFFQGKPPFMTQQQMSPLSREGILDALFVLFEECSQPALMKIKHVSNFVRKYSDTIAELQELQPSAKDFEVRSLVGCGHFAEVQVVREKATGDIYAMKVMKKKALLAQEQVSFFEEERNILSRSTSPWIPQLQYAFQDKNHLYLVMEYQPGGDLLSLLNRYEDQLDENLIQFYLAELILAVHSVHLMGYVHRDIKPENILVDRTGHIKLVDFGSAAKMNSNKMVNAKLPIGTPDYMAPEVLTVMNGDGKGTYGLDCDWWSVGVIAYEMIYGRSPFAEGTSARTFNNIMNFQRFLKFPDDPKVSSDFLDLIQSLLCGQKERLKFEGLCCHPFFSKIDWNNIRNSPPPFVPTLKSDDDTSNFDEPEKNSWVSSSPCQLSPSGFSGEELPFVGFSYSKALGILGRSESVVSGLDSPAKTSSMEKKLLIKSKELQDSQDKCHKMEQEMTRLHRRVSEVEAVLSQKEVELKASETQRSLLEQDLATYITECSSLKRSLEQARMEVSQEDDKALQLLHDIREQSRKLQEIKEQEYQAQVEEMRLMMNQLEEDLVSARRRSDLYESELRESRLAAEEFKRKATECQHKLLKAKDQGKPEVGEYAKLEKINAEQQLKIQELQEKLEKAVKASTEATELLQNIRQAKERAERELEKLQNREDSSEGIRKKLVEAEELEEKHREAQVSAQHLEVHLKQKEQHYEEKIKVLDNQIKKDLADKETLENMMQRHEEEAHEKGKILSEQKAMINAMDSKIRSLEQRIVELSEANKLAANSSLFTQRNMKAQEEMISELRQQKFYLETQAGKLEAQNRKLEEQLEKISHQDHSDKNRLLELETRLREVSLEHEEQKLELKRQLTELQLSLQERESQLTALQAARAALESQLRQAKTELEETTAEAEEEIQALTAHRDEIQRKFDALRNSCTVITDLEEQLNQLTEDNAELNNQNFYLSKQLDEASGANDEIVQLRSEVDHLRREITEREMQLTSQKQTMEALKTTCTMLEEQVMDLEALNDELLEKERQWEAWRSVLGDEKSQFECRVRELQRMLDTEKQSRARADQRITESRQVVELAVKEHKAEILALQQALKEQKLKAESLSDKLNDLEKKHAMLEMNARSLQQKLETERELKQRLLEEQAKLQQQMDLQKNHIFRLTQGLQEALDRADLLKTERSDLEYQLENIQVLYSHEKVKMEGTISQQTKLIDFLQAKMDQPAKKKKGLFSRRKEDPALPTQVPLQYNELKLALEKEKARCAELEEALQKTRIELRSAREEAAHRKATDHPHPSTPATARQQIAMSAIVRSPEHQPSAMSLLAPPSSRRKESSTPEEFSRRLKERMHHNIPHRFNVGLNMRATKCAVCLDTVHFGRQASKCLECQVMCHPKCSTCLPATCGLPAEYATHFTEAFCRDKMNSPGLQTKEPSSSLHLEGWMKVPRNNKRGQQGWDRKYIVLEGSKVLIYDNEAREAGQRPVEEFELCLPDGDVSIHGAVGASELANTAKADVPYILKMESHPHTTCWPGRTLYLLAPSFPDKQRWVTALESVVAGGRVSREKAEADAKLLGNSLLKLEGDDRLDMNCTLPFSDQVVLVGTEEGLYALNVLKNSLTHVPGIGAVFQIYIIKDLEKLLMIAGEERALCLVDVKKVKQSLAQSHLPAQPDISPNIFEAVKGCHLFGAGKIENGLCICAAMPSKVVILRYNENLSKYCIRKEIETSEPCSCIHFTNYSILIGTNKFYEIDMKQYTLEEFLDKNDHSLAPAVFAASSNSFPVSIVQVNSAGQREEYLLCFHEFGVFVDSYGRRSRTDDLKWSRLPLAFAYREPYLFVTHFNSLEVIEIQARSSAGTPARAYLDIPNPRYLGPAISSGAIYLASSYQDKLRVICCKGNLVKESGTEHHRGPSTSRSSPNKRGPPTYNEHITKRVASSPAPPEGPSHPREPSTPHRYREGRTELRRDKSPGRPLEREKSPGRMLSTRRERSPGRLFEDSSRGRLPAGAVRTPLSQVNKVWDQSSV", "experiment": "Ambit kinase phage display ATP-binding-site ligand binding assay", "settings": "read-out: percent inhibition of binding", "source_text": "as §1, §2"}, "HS 578T [15]": {"test_system": "HS 578T", "experiment": "cells", "settings": "Homo sapiens, 48 h"}, "[16]": {"settings": "Log10 Concentration −4.0, Molar"}, "[17]": {"settings": "Log10 Concentration −5.0, Molar"}, "[18]": {"settings": "Log10 Concentration −6.0, Molar"}, "[19]": {"settings": "Log10 Concentration −7.0, Molar"}, "[20]": {"settings": "Log10 Concentration −8.0, Molar"}}, "note": "Read-outs that look alike come from different tables or passages of the source."}
{"compound": "CCOC(=O)C[C@@H]1C(O[Si](C)(C)C(C)(C)C)[C@H](n2cnc3c(NC(=O)Nc4ccccc4)ncnc32)O[C@@H]1CNC(=O)NC", "note": "(some centres unmarked) [Compound 10]", "values": [{"measurement": "TGI", "setting": "SR [1]; 48 h", "value": "7.07E−6", "unit": "Molar"}, {"measurement": "Percent Growth", "setting": "SR [1]; [16]", "value": "−34", "unit": "%"}, {"measurement": "Percent Growth", "setting": "SR [1]; [17]", "value": "−15", "unit": "%"}, {"measurement": "Percent Growth", "setting": "SR [1]; [18]", "value": 85, "unit": "%"}, {"measurement": "Percent Growth", "setting": "SR [1]; [19]", "value": 70, "unit": "%"}, {"measurement": "Percent Growth", "setting": "SR [1]; [20]", "value": 82, "unit": "%"}, {"measurement": "TGI", "setting": "K-562 [2]; 48 h", "value": "3.29E−5", "unit": "Molar"}, {"measurement": "Percent Growth", "setting": "K-562 [2]; [16]", "value": "−17", "unit": "%"}, {"measurement": "Percent Growth", "setting": "K-562 [2]; [17]", "value": 19, "unit": "%"}, {"measurement": "Percent Growth", "setting": "K-562 [2]; [18]", "value": 89, "unit": "%"}, {"measurement": "Percent Growth", "setting": "K-562 [2]; [19]", "value": 93, "unit": "%"}, {"measurement": "Percent Growth", "setting": "K-562 [2]; [20]", "value": 96, "unit": "%"}, {"measurement": "GI50", "setting": "PC-3", "value": 2250, "unit": "nM"}, {"measurement": "CC50", "setting": "PC-3; read-out: LC50", "value": 12.5, "unit": "µM"}, {"measurement": "TGI", "setting": "SW-620 [3]; 48 h", "value": "2.84E−5", "unit": "Molar"}, {"measurement": "Percent Growth", "setting": "SW-620 [3]; [16]", "value": "−33", "unit": "%"}, {"measurement": "Percent Growth", "setting": "SW-620 [3]; [17]", "value": 28, "unit": "%"}, {"measurement": "Percent Growth", "setting": "SW-620 [3]; [18]", "value": 97, "unit": "%"}, {"measurement": "Percent Growth", "setting": "SW-620 [3]; [19]", "value": 94, "unit": "%"}, {"measurement": "Percent Growth", "setting": "SW-620 [3]; [20]", "value": 97, "unit": "%"}, {"measurement": "GI50", "setting": "SW-620 [4]", "value": 4.8, "unit": "µM"}, {"measurement": "CC50", "setting": "SW-620 [4]; read-out: LC50", "value": "> 100", "unit": "µM"}, {"measurement": "TGI", "setting": "SK-MEL-28 [5]; 48 h", "value": "2.02E−5", "unit": "Molar"}, {"measurement": "Percent Growth", "setting": "SK-MEL-28 [5]; [16]", "value": "−91", "unit": "%"}, {"measurement": "Percent Growth", "setting": "SK-MEL-28 [5]; [17]", "value": 40, "unit": "%"}, {"measurement": "Percent Growth", "setting": "SK-MEL-28 [5]; [18]", "value": 100, "unit": "%"}, {"measurement": "Percent Growth", "setting": "SK-MEL-28 [5]; [19]", "value": 106, "unit": "%"}, {"measurement": "Percent Growth", "setting": "SK-MEL-28 [5]; [20]", "value": 104, "unit": "%"}, {"measurement": "TGI", "setting": "HS 578T [6]; 48 h", "value": "5.36E−5", "unit": "Molar"}, {"measurement": "Percent Growth", "setting": "HS 578T [6]; [16]", "value": "−7", "unit": "%"}, {"measurement": "Percent Growth", "setting": "HS 578T [6]; [17]", "value": 18, "unit": "%"}, {"measurement": "Percent Growth", "setting": "HS 578T [6]; [18]", "value": 90, "unit": "%"}, {"measurement": "Percent Growth", "setting": "HS 578T [6]; [19]", "value": 95, "unit": "%"}, {"measurement": "Percent Growth", "setting": "HS 578T [6]; [20]", "value": 94, "unit": "%"}, {"measurement": "Percent Growth", "setting": "HL-60(TB) [7]; [16]", "value": 22, "unit": "%"}, {"measurement": "Percent Growth", "setting": "HL-60(TB) [7]; [17]", "value": "−5", "unit": "%"}, {"measurement": "Percent Growth", "setting": "HL-60(TB) [7]; [18]", "value": 101, "unit": "%"}, {"measurement": "Percent Growth", "setting": "HL-60(TB) [7]; [19]", "value": 110, "unit": "%"}, {"measurement": "Percent Growth", "setting": "HL-60(TB) [7]; [20]", "value": 85, "unit": "%"}, {"measurement": "CC50", "setting": "cells", "value": 17.9, "unit": "µM"}, {"measurement": "GI50", "setting": "MOLT-4 [8]", "value": 2390, "unit": "nM"}, {"measurement": "CC50", "setting": "MOLT-4 [8]; read-out: LC50", "value": "> 100", "unit": "µM"}, {"measurement": "GI50", "setting": "HL-60(TB) [9]", "value": 3.01, "unit": "µM"}, {"measurement": "CC50", "setting": "HL-60(TB) [9]; read-out: LC50", "value": "> 100", "unit": "µM"}, {"measurement": "inhibition at 10 µM", "setting": "AURKB", "value": "20 to 29", "unit": "%"}, {"measurement": "GI50", "setting": "SR [10]", "value": 2230, "unit": "nM"}, {"measurement": "CC50", "setting": "SR [10]; read-out: LC50", "value": "> 100", "unit": "µM"}, {"measurement": "GI50 values (potent anticancer activities)", "setting": "[11]", "value": "low micromolar"}, {"measurement": "TGI", "setting": "MOLT-4 [12]; 48 h", "value": "2.33E−5", "unit": "Molar"}, {"measurement": "Percent Growth", "setting": "MOLT-4 [12]; [16]", "value": "−14", "unit": "%"}, {"measurement": "Percent Growth", "setting": "MOLT-4 [12]; [17]", "value": 8, "unit": "%"}, {"measurement": "Percent Growth", "setting": "MOLT-4 [12]; [18]", "value": 76, "unit": "%"}, {"measurement": "Percent Growth", "setting": "MOLT-4 [12]; [19]", "value": 84, "unit": "%"}, {"measurement": "Percent Growth", "setting": "MOLT-4 [12]; [20]", "value": 93, "unit": "%"}, {"measurement": "inhibition at 10 µM", "setting": "CLK3", "value": "20 to 29", "unit": "%"}, {"measurement": "GI50", "setting": "SK-MEL-28 [13]", "value": 6.85, "unit": "µM"}, {"measurement": "CC50", "setting": "SK-MEL-28 [13]; read-out: LC50", "value": 48.7, "unit": "µM"}, {"measurement": "GI50", "setting": "K-562 [14]", "value": 3.59, "unit": "µM"}, {"measurement": "CC50", "setting": "K-562 [14]; read-out: LC50", "value": "> 100", "unit": "µM"}, {"measurement": "inhibition at 10 µM", "setting": "CIT", "value": "20 to 29", "unit": "%"}, {"measurement": "GI50", "setting": "HS 578T [15]", "value": 3.6, "unit": "µM"}, {"measurement": "CC50", "setting": "HS 578T [15]; read-out: LC50", "value": "> 100", "unit": "µM"}]}
